Test results reported in US8901168B2 (priority 2007, dated 2014).

Test system: anti-TT antibodies
Parameters: species or system BALB/c mice
Details: mouse, in vivo

SMILES | anti-TT Ig titres | anti-TT antibody titres after the third vaccination vs α-T treated mice | anti-TT antibody titres after the third vaccination, ranking of groups | antibody titres after the third immunisation as compared to first immunisation
Cc1c(C)c2c(c(C)c1O)CC[C@@](C)(CCC[C@H](C)CCC[C@H](C)CCCC(C)C)O2 [α-T, α-tocopherol] | significantly (P<0.05) enhanced |  |  | 
CC(C)=CCC/C(C)=C/CC/C(C)=C/CC[C@]1(C)CCc2cc(O)cc(C)c2O1 [δ-T3, δ-tocotrienol] | significantly (P<0.05) enhanced | significantly (P<0.01) higher | highest | highly significant (P<0.01) antibody titres
